Reference: US7465814B2, “Sulfonate compound and fluorescent probe using the same” (priority 2003, dated 2008)

Legend:
[1] = Fluorescent response to propylamine (Table 1); assay type: biochemical; conditions: relative fluorescence intensity, blank = 10; probe 21.3 μM, propylamine 50 μM, 37° C., 10 minutes
Experimental: Moreover, in other conditions than those of the above-described tests, reactivity of all of the compounds 1a to 1d with H2O2, other various kinds of nucleophilic agents, reducing agents and the like also was tested, respectively. More specifically, fluorescent responses of 1a to 1d with respect to a XO-HPX system, a XO-HPX-SOD system, H2O2, ascorbic acid, 1,4-hydroquinone, propylamine, diethylamine, glucose, esterase, a cytochrome P450 reductase+NADPH system, and a diaphorase+NADH system were measured, respectively. Operational processes thereof will be described below. Firstly, 1a to 1d and the above-described reagents were dissolved in HEPES of 10 mM having a pH of 7.4 so as to prepare solutions, respectively. Next, a 96 wellmicroplate was provided, where any of the solutions of 1a to 1d (25 μM, 170 μL) was poured into each of the wells, and furthermore, 30 μL of a blank solution or 30 μL of the solution of the reagent to be reacted therewith was added thereto. Final concentrations of the solutions in the wells were adjusted so that concentrations of the solutions of 1a to 1d respectively could be 21.3 μM, that of XO could be 13.1 mU/mL, those of HPX, H2O2, ascorbic acid, 1,4-hydroquinone, propylamine, diethylamine, glucose, NADPH and NADH respectively could be 50 μM, that of cytochrome P450 reductase could be 68 mU/mL, that of diaphorase could be 65 mU/mL, and that of esterase could be 0.5 U/mL, respectively. Then, after they reacted in the wells at 37° C. for 10 minutes, fluorescent responses were measured respectively. Fluorescence intensity measurement was conducted by using an ETC-272 Peltier thermostatted single cell holder (trade name) manufactured by JASCO Corporation or a SpectraMax GeminiEM fluorescence plate reader (trade name) manufactured by Molecular Devices Corporation provided with a FP-750 spectrofluorometer (trade name) manufactured by JASCO Corporation, and by setting excitation wavelengths and emission wavelengths so that those of 1a, 1b and 1c respectively could be 485 nm and 515 nm, and those of 1d respectively could be 511 nm and 540 nm.

[2] = Quantitativity of fluorescence response in the HPX/XO system, 96-well microplate assay; assay type: biochemical
Experimental: According to a 96 wellmicroplate assay, sensitivity and quantitativity of the fluorescence response of the probe (the compound 1d) in the HPX/XO system were tested. Specifically, a DMSO solution of 1d (10 mM) was diluted by 400-fold with HEPES (pH 7.4, 10 mM) so as to prepare a probe solution, and this probe solution (150 μL) was mixed with a HEPES solution of HPX (10 μL) and a HEPES solution of XO (0.26 U/mL, 10 μL), and was allowed to stand still at 37° C. for 10 minutes, and thereafter, a fluorescence intensity was measured. […] A correlation coefficient of this linear calibration curve was 1.000, and an inclination thereof was 0.58 au/pmol.
More specifically, an assay condition was the same as that in the above-described measurement, except providing a DMSO solution of 1d with a concentration of 5 mM, preparing a probe solution by diluting this DMSO solution by 400-fold with HEPES (pH 7.4, 10 mM), and using 180 μL of the probe solution. Fluorescence intensity measurement was conducted by using an ETC-272 Peltier thermostatted single cell holder (trade name) manufactured by JASCO Corporation or a SpectraMax GeminiEM fluorescence plate reader (trade name) manufactured by Molecular Devices Corporation provided with a FP-750 spectrofluorometer (trade name) manufactured by JASCO Corporation. As a result, a detection limit value of the concentration of HPX was 1.0 pmol (RSD, n=8; 2.9%), and a favorable linear calibration curve with a correlation coefficient of 0.9993 and an inclination of 0.80 au/pmol was obtained, with the concentration of HPX ranging from the detection limit value to 2.0 nmol. The inclination of this linear calibration curve is different from that of the above-described measurement, because of using the arbitrary units for the fluorescence intensities and the different measurement apparatuses.

[3] = system: neutrophils stimulated by phorbol myristate acetate (PMA); assay: Superoxide detection in PMA-stimulated neutrophils (FIG. 2, FIG. 3); assay type: cell-based, human; conditions: probe 25 μM solution 50 μL, PMA 0.64 μM solution 50 μL, 37° C., 120 minutes
Source text: It is known that, if neutrophils are stimulated by phorbol ester, superoxide is produced. […] A specific testing method will be described below.
Firstly, whole blood donated by a good-health volunteer was heparinized, and it was subjected to centrifugal separation after adding a Mono-Poly resolving medium manufactured by Dainippon Pharmaceutical Co. Ltd. thereto. After the separation, cells were washed with PBS (−) twice, were suspended again at a concentration of 1.0×10^6 or 1.0×10^5 cells/mL by using PBS (+), and were maintained under an ice-cold condition until they were used. […] Fluorescence intensity measurement was conducted immediately (measurement at the time 0), and thereafter, incubation was conducted at 37° C. for 120 minutes. During the incubation, a change of the fluorescence intensity of the cells was measured once every 30 minutes. All of the measurements were conducted by using a CytoFluor II multiwell fluorescence plate reader (trade name) manufactured by PerSeptive Biosystems, Inc. in the U.S., by setting an excitation filter and an emission filter at 485±20 nm and 530±25 nm, respectively.
A horizontal axis of the graph denotes an incubation time (minute), and a vertical axis thereof denotes a fluorescence intensity (au). […]

With `O=C1OC2(c3ccccc31)c1cc(F)c(OS(=O)(=O)c3ccc([N+](=O)[O-])cc3[N+](=O)[O-])c(F)c1Oc1c2cc(F)c(OS(=O)(=O)c2ccc([N+](=O)[O-])cc2[N+](=O)[O-])c1F` [Compound 1d] the “fluorescent response, propylamine” value [1] was 10, the “detection limit value of HPX” value ([2]; 10 mM DMSO solution diluted 400-fold, 150 μL probe solution, 37° C., 10 minutes) was 5.0 pmol and the “inclination of linear calibration curve” value ([2]; 10 mM DMSO solution diluted 400-fold, 150 μL, HPX from detection limit to 10.0 nmol) was 0.58 au/pmol. The “detection limit value of HPX” value ([2]; different apparatus, 5 mM DMSO solution diluted 400-fold, 180 μL probe solution) was 1.0 pmol, the “inclination of linear calibration curve” value ([2]; different apparatus, 5 mM DMSO solution, 180 μL, HPX from detection limit to 2.0 nmol) was 0.80 au/pmol and the “detection of superoxide from PMA-stimulated neutrophils” value [3] was “could detect superoxide with high sensitivity in a cell system also”.
